From patent publication US20230256139A1, “IMPLANT SURFACES FOR PAIN CONTROL” (The General Hospital Corporation, priority 2016, published 2023)
Where “and” joins values, the source holds several entries; their conditions need not be identical. Equal entries are not always repeated. Where two headings read alike, the source gives them in different places.

What was measured:
[1] = Elution of lidocaine-blended UHMWPE cubes in 40° C. DI water, FTIR lidocaine index profile; assay type: physicochemical; settings: 0.25 wt % and 0.50 wt % lidocaine blends, up to 6 weeks
Method: These cubes were then immersed in 40° C. DI water. Groups of n=3 cubes per each wt. % were removed from the DI water and analyzed via FTIR at the following time points: 0 weeks (Control), 1 week, 2 weeks, 4 weeks, and 6 weeks.

[2] = for amount of lidocaine eluted: cubes doped 640 min at 100° C.
Text: The cubes were microtomed perpendicular to a surface plane in the middle of the said surface and the FTIR spectra of the thin sections prepared as described above were obtained as a function of depth from the surface towards the bulk.

[3] = CISM 1 cm cubes, 120° C.
[4] = cited from earlier work

## 2-(Dimethylamino)-N-(2,6-Dimethylphenyl)acetamide [lidocaine]
[1]
  surface concentration of lidocaine in UHMWPE with increasing elution time: decrease
[2]; 40° C. DI H2O, 1 day
  lidocaine eluted, percent: 13%
  amount of lidocaine eluted: 1.4 ± 0.1 mg
[2]; 40° C. DI H2O, 2 days
  lidocaine eluted, percent: 20%
  amount of lidocaine eluted: 2.2 ± 0.1 mg
[2]; 40° C. DI H2O, 7 days
  lidocaine eluted, percent: 34%
  amount of lidocaine eluted: 3.6 ± 0.1 mg
[2]; 40° C. DI H2O, 14 days
  lidocaine eluted, percent: 45%
  amount of lidocaine eluted: 4.8 ± 0.1 mg
[2]; 40° C. DI H2O, 28 days
  lidocaine eluted, percent: 59%
  amount of lidocaine eluted: 6.3 ± 0.2 mg
[2]; 40° C. DI H2O, 56 days
  lidocaine eluted, percent: 70%
  amount of lidocaine eluted: 7.5 ± 0.1 mg
[2]; 100° C. DI H2O, 0.6 hours
  lidocaine eluted, percent: 19%
  amount of lidocaine eluted: 2.0 ± 0.0 mg
[2]; 100° C. DI H2O, 2.6 hours
  lidocaine eluted, percent: 38%
  amount of lidocaine eluted: 4.1 ± 0.1 mg
[2]; 100° C. DI H2O, 5.3 hours
  lidocaine eluted, percent: 49%
  amount of lidocaine eluted: 5.2 ± 0.0 mg
[2]; 100° C. DI H2O, 12 hours
  lidocaine eluted, percent: 70%
  amount of lidocaine eluted: 7.3 ± 0.0 mg
[2]; 100° C. DI H2O, 24 hours
  lidocaine eluted, percent: 79%
  amount of lidocaine eluted: 8.6 ± 0.2 mg
[2]; 100° C. DI H2O, 48 hours
  lidocaine eluted, percent: 85%
  amount of lidocaine eluted: 9.0 ± 0.1 mg
[3]; doping time 1 hour
  amount of lidocaine absorbed: 10.6 ± 0.3 mg
[3]; doping time 2 hours
  amount of lidocaine absorbed: 16.8 ± 0.1 mg
[3]; doping time 6 hours
  amount of lidocaine absorbed: 30.8 ± 0.2 mg and ~31 mg
[3]; doping time 12 hours
  amount of lidocaine absorbed: 40.3 ± 0.2 mg
[3]; doping time 24 hours
  amount of lidocaine absorbed: 52.1 ± 0.9 mg
[3]; doping time […]
  amount of lidocaine absorbed: 3.0 ± 0.1 mg

## CCCCN1CCCCC1C(=O)Nc1c(C)cccc1C.Cl (stereo not shown) [bupivacaine hydrochloride, 1-Butyl-N-(2,6-dimethylphenyl)-2-piperidinecarboxamide hydrochloride]
[4]
  solubility in cold water: soluble
  solubility in diethyl ether: partially soluble
  solubility in methanol: easily soluble
